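A five-concentration, 48-hour dose response in 96-well plates underlies each endpoint, interpolated linearly between surrounding concentrations. Here, GI50 denotes the concentration required for 50% inhibition of growth.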 Calls of active or inactive are those of the source. Cut-off read from the data, not from the text of the source: active = GI50 up to about 1.1 µM and inactive = higher.
Experiments:
Assay in all cases: NCI tumour cell line growth inhibition, 48 h
[1] = tested on: K562
[2] = tested on: LOX IMVI
[3] = tested on: SNB-19
[4] = tested on: SK-OV-3
[5] = tested on: OVCAR-4
[6] = tested on: HCT-15
[7] = tested on: HOP-92
[8] = tested on: UACC-257
[9] = tested on: SW-620
[10] = tested on: UACC-62
[11] = tested on: HL-60
[12] = tested on: HT-29
[13] = tested on: UO-31
[14] = tested on: MDA-MB-435
[15] = tested on: RPMI-8226
[16] = tested on: SF-268
[17] = tested on: OVCAR-5
[18] = tested on: MOLT-4
[19] = tested on: OVCAR-8
[20] = tested on: DU-145
[21] = tested on: COLO 205
[22] = tested on: EKVX
[23] = tested on: T47D
[24] = tested on: M14
[25] = tested on: CAKI-1
[26] = tested on: Malme-3M
[27] = tested on: A549
[28] = tested on: ACHN
[29] = tested on: CCRF-CEM
[30] = tested on: SK-MEL-28
[31] = tested on: MCF7
[32] = tested on: SF-295
[33] = tested on: U-251
[34] = tested on: NCI-H226
[35] = tested on: SK-MEL-2
[36] = tested on: MDA-MB-231
[37] = tested on: SF-539
[38] = tested on: NCI/ADR-RES
[39] = tested on: IGROV-1
[40] = tested on: HOP-62
[41] = tested on: SN12C
[42] = tested on: MDA-N
[43] = tested on: NCI-H460
[44] = tested on: KM12
[45] = tested on: BT-549
[46] = tested on: HCT-116
[47] = tested on: PC-3
[48] = tested on: SK-MEL-5
[49] = tested on: Hs-578T
[50] = tested on: TK-10
[51] = tested on: 786-0
[52] = tested on: OVCAR-3
[53] = tested on: RXF 393
[54] = tested on: A498
[55] = tested on: NCI-H522
[56] = tested on: SR
[57] = tested on: NCI-H23
[58] = tested on: SNB-75
[59] = tested on: HCC 2998

N#CCCN(CCC#N)c1ccc(/C=C2\N=C(c3ccccc3)N(c3ccccn3)C2=O)cc1
GI50 [1]: > 100 µM (inactive) | GI50 [2]: > 100 µM (inactive) | GI50 [3]: > 100 µM (inactive) | GI50 [4]: > 100 µM (inactive) | GI50 [5]: > 100 µM (inactive) | GI50 [6]: > 100 µM | GI50 [7]: > 100 µM (inactive) | GI50 [8]: > 100 µM (inactive) | GI50 [9]: > 100 µM (inactive) | GI50 [10]: > 100 µM (inactive) | GI50 [11]: > 100 µM (inactive) | GI50 [12]: > 100 µM (inactive) | GI50 [13]: > 100 µM (inactive) | GI50 [14]: > 100 µM (inactive) | GI50 [15]: > 100 µM (inactive) | GI50 [16]: > 100 µM (inactive) | GI50 [17]: > 100 µM (inactive) | GI50 [18]: > 100 µM (inactive) | GI50 [19]: > 100 µM (inactive) | GI50 [20]: > 100 µM (inactive) | GI50 [21]: > 100 µM (inactive) | GI50 [22]: > 100 µM (inactive) | GI50 [23]: > 100 µM (inactive) | GI50 [24]: > 100 µM (inactive) | GI50 [25]: > 100 µM (inactive) | GI50 [26]: > 100 µM (inactive) | GI50 [27]: > 100 µM (inactive) | GI50 [28]: > 100 µM (inactive) | GI50 [29]: > 100 µM (inactive) | GI50 [30]: > 100 µM (inactive) | GI50 [31]: > 100 µM (inactive) | GI50 [32]: > 100 µM (inactive) | GI50 [33]: > 100 µM (inactive) | GI50 [34]: > 100 µM (inactive) | GI50 [35]: > 100 µM (inactive) | GI50 [36]: > 100 µM (inactive) | GI50 [37]: > 100 µM (inactive) | GI50 [38]: > 100 µM (inactive) | GI50 [39]: > 100 µM (inactive) | GI50 [40]: > 100 µM (inactive) | GI50 [41]: > 100 µM (inactive) | GI50 [42]: > 100 µM (inactive) | GI50 [43]: > 100 µM (inactive) | GI50 [44]: > 100 µM (inactive) | GI50 [45]: > 100 µM (inactive) | GI50 [46]: > 100 µM (inactive) | GI50 [47]: > 100 µM (inactive) | GI50 [48]: > 100 µM (inactive) | GI50 [49]: > 100 µM (inactive) | GI50 [50]: > 100 µM (inactive) | GI50 [51]: > 100 µM (inactive) | GI50 [52]: > 100 µM (inactive) | GI50 [53]: > 100 µM (inactive) | GI50 [54]: > 100 µM (inactive)

COc1cc2oc(=O)ccc2cc1C(=O)CC(C)C
GI50 [1]: > 100 µM (inactive) | GI50 [2]: > 100 µM (inactive) | GI50 [3]: 56.1 µM (inactive) | GI50 [4]: > 100 µM (inactive) | GI50 [5]: 71.1 µM (inactive) | GI50 [55]: 23.6 µM (inactive) | GI50 [56]: 62.4 µM (inactive) | GI50 [6]: > 100 µM | GI50 [57]: > 100 µM (inactive) | GI50 [7]: > 100 µM (inactive) | GI50 [8]: > 100 µM (inactive) | GI50 [58]: 78.7 µM (inactive) | GI50 [9]: > 100 µM (inactive) | GI50 [10]: > 100 µM (inactive) | GI50 [11]: 39.2 µM (inactive) | GI50 [12]: > 100 µM (inactive) | GI50 [59]: > 100 µM (inactive) | GI50 [13]: > 100 µM (inactive) | GI50 [14]: > 100 µM (inactive) | GI50 [15]: > 100 µM (inactive) | GI50 [16]: 99.3 µM (inactive) | GI50 [17]: > 100 µM (inactive) | GI50 [18]: 57.8 µM (inactive) | GI50 [19]: > 100 µM (inactive) | GI50 [20]: > 100 µM (inactive) | GI50 [21]: > 100 µM (inactive) | GI50 [22]: 94.8 µM (inactive) | GI50 [23]: > 100 µM (inactive) | GI50 [24]: > 100 µM (inactive) | GI50 [25]: 22.9 µM (inactive) | GI50 [27]: > 100 µM (inactive) | GI50 [28]: > 100 µM (inactive) | GI50 [29]: > 100 µM (inactive) | GI50 [30]: > 100 µM (inactive) | GI50 [31]: 73.8 µM (inactive) | GI50 [32]: > 100 µM (inactive) | GI50 [33]: > 100 µM (inactive) | GI50 [34]: 28.6 µM (inactive) | GI50 [35]: > 100 µM (inactive) | GI50 [36]: > 100 µM (inactive) | GI50 [37]: > 100 µM (inactive) | GI50 [38]: 66.4 µM (inactive) | GI50 [39]: > 100 µM (inactive) | GI50 [40]: > 100 µM (inactive) | GI50 [41]: > 100 µM (inactive) | GI50 [42]: > 100 µM (inactive) | GI50 [43]: 62.5 µM (inactive) | GI50 [44]: > 100 µM (inactive) | GI50 [45]: 71.4 µM (inactive) | GI50 [46]: > 100 µM (inactive) | GI50 [47]: > 100 µM (inactive) | GI50 [48]: > 100 µM (inactive) | GI50 [49]: 38.5 µM (inactive) | GI50 [50]: > 100 µM (inactive) | GI50 [51]: > 100 µM (inactive) | GI50 [52]: > 100 µM (inactive) | GI50 [54]: > 100 µM (inactive)

— ChEMBL document CHEMBL1201862, “PubChem BioAssay data set” (2004)
